Tests used:
[1] = tested on: Cys-Cys-Pro-Gly-Cys-Cys (CCPGCC) sequence; settings: four As-S bonds with CCPGCC; cited from earlier work
From the text: In 1998, Griffin et al. described a system for fluorescent imaging using a biarsenical fluorescein analogue system now widely known as FlAsH.[6] This system relied on a reversible soft Lewis acid–base reaction between As(III) and S(-II) of cysteine. […] Since this sequence is uncommon in natural proteins, it requires installation via genetic alteration of the organism where the protein is expressed; in small peptides, it can be introduced during chemical synthesis. However, as ...

[2] = PET measurement of organ distribution in a nonhuman primate; assay type: in vivo, cynomolgus monkey; settings: i.v.; NHP
Procedure: Second, high background affinity to any organ would severely hamper protein imaging in that organ. In order to test if 1 fulfilled these prerequisites, a […] dynamic PET measurement was performed after an intravenous injection of [^11C]CH3-1, with the upper body of a nonhuman primate subject (NHP) in the field of view. […] The high radioactivity in the liver and the low uptake in the brain likely prohibits the use of 1 for pretargeting in these organs. […] Blood samples were taken at multiple time points during the NHP PET measurements for the purpose of analyzing radiolabeled metabolites in plasma.
Figure 3 (a) Summation PET image of NHP showing the distribution of [^11C]CH3-1 from 3 to 60 min after intravenous injection. (b) Time–activity curves showing organ distribution following intravenous injection of [^11C]CH3-1.
Image- and Statistical Analysis
The acquired list mode data was reconstructed into […] (93 min scan = 4x10 s, 4x20 s, 4x60 s, 7x180 s, 11x360 s). The image reconstruction was made with a fully 3-dimensional maximum-likelihood expectation maximization algorithm (MLEM) with 20 iterations, without scatter and attenuation correction. […] The regional uptake values were expressed as standard uptake value (SUV), which normalizes for injected radioactivity and body weight. […]

Structure (SMILES) | binding constant [1] | background radioactivity in lungs and heart [2]
O=C(O)c1ccccc1-c1c2ccc(=O)c([As]3SCCS3)c-2oc2c([As]3SCCS3)c(O)ccc12 [FlAsH] | high binding constant | 
O=c1cc2oc3c([As]4SCCS4)c(O)ccc3c(-c3ccc(F)cc3)c-2cc1[As]1SCCS1 [compound 1] |  | intermediate background radioactivity

Source: paper PMC8023571, “Multiple Applications of a Novel Biarsenical Imaging Probe in Fluorescence and PET Imaging of Melanoma” (Bioconjugate Chemistry, 2021)
